pIC50, pKi: −log10 of the molar value. Active and inactive are the calls of the source. No cut-off for these calls is given here.

One series deals with Glucagon receptor (Homo sapiens, UniProt P47871). Description: Potency index, ratio of Ki of 3-(4-((1R)-1-(4-methoxy-5-(2-methyl-4-(trifluoromethyl)phenyl)-1H-indazol-1-yl)-3-methylbutyl)benzamido)propanoic acid to Ki of compound for human full length GCGR transfected in HEK293 cells assessed as reduction in glucagon-induced cAMP response by LANCE TR-FRET assay. The series is classed as functional, cell-based. On the technique in general: TR-FRET usually uses a lanthanide donor and a delayed reading to cut background.

Series [1] is described as follows: Stability in dog liver microsomes assessed as parent compound remaining at 1 uM incubated for 10 mins. It is filed as ADME, Canis lupus familiaris, Microsome. The conditions noted are these: liver microsomes, read-out: Stability.
Series [2] in a line: Stability in mouse liver microsomes assessed as parent compound remaining at 1 uM incubated for 10 mins. The series is classed as ADME, Microsome. The conditions noted are these: liver microsomes, read-out: Stability. For orientation: Microsomes from liver hold many membrane-bound enzymes, among them those of drug oxidation.
Series [3] can be described thus: Stability in rat liver microsomes assessed as parent compound remaining at 1 uM incubated for 10 mins. It is filed as ADME, Microsome. The conditions noted are these: read-out: Stability.
A short description of series [4]: Stability in human liver microsomes assessed as parent compound remaining at 1 uM incubated for 10 mins. It is filed as ADME, Microsome. The conditions noted are these: read-out: Stability.
Series [5] can be described thus: Half life in C57 mouse at 20 mg/kg, po. The series is classed as ADME, organism-based. The conditions noted are these: in vivo.
Series [6] is described as follows: Clearance in C57 mouse at 5 mg/kg, iv or 20 mg/kg, po. It is filed as ADME, organism-based. As to conditions: in vivo.
For series [7], the target named is T1, Cytochrome P450 3A4 (Homo sapiens, UniProt P08684). Briefly: Inhibition of CYP3A4 (unknown origin) using midazolam as substrate. The series is classed as ADME.
Series [8] deals with Canis familiaris. Briefly: Antidiabetic activity in Beagle dog assessed as reduction in blood glucose level at 10 mg/kg, po administered via gavage as single dose 90 mins prior to glucagon challenge measured up to 60 mins post glucagon challenge by glucometer analysis. As to conditions: Canis lupus familiaris. The series is classed as functional, organism-based.
Series [9] can be described thus: Oral bioavailability in dog at 10 mg/kg. It is filed as ADME, organism-based, Canis lupus familiaris. As to conditions: in vivo.
Series [10] can be described thus: Oral bioavailability in Sprague-Dawley rat at 10 mg/kg. The series is classed as ADME, organism-based. As to conditions: in vivo.
Series [11] is described as follows: Half life in dog at 2 mg/kg, iv. It is filed as ADME, organism-based, Canis lupus familiaris. The conditions noted are these: in vivo.
For series [12], the system named is Canis familiaris. Description: Antidiabetic activity in Beagle dog assessed as reduction in blood glucose AUC at 10 mg/kg, po administered via gavage as single dose 90 mins prior to glucagon challenge by glucometer analysis. The series is classed as functional, organism-based. The conditions noted are these: Canis lupus familiaris.
A short description of series [13]: AUClast in dog at 2 mg/kg, iv or 10 mg/kg, po. It is filed as ADME, organism-based, Canis lupus familiaris. As to conditions: in vivo.
The target of a further series is T2, Cytochrome P450 1A2 (Homo sapiens, UniProt P05177).
T2 sequence (P05177 whole entry): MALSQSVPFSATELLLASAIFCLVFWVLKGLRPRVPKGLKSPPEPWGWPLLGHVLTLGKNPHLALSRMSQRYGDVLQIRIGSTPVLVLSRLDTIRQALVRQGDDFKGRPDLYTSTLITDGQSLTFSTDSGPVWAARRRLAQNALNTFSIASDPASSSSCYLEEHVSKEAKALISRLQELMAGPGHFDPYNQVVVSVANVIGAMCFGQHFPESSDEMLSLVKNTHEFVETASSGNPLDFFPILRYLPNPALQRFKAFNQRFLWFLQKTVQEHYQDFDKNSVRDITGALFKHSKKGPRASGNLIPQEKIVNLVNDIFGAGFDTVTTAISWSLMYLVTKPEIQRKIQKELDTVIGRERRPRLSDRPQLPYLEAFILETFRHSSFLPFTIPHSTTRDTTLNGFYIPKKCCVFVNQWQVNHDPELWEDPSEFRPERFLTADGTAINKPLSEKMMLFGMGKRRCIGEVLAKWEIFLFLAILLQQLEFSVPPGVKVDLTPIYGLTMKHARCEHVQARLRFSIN
Briefly: Inhibition of CYP1A2 (unknown origin) using phenacetin as substrate. It is filed as ADME.

A short description of series [14]: Half life in C57 mouse at 5 mg/kg, iv. It is filed as ADME, organism-based. As to conditions: in vivo.
Series [15] is described as follows: Half life in Sprague-Dawley rat at 10 mg/kg, po. It is filed as ADME, organism-based. The conditions noted are these: in vivo.
Series [16] in a line: Clearance in dog at 2 mg/kg, iv or 10 mg/kg, po. The series is classed as ADME, organism-based, Canis lupus familiaris. The conditions noted are these: in vivo.
The next series addresses Cytochrome P450 2D6 (Homo sapiens, UniProt P10635). Briefly: Inhibition of CYP2D6 (unknown origin) using dextromethorphan as substrate. The series is classed as ADME.
The next series concerns the target Cytochrome P450 2C9 (Homo sapiens, UniProt P11712). Briefly: Inhibition of CYP2C9 (unknown origin) using tolbutamide as substrate. It is filed as ADME.
Series [17] can be described thus: AUClast in Sprague-Dawley rat at 2 mg/kg, iv or 10 mg/kg, po. It is filed as ADME, organism-based. The conditions noted are these: in vivo.
Series [18] in a line: AUClast in C57 mouse at 5 mg/kg, iv or 20 mg/kg, po. The series is classed as ADME, organism-based. The conditions noted are these: in vivo.
The target in the next series is Cytochrome P450 2C19 (Homo sapiens, UniProt P33261). Description: Inhibition of CYP2C19 (unknown origin) using S-Mephenytoin as substrate. It is filed as ADME.
Series [19] is described as follows: Volume of distribution at steady state in Sprague-Dawley rat at 2 mg/kg, iv or 10 mg/kg, po. It is filed as ADME, organism-based. The conditions noted are these: in vivo, read-out: Vdss.
Series [20] is described as follows: Volume of distribution at steady state in C57 mouse at 5 mg/kg, iv or 20 mg/kg, po. It is filed as ADME, organism-based. The conditions noted are these: in vivo, read-out: Vdss.
Series [21] in a line: Cmax in dog at 2 mg/kg, iv or 10 mg/kg, po. The series is classed as ADME, organism-based, Canis lupus familiaris. The conditions noted are these: in vivo.
A short description of series [22]: Cmax in Sprague-Dawley rat at 2 mg/kg, iv or 10 mg/kg, po. The series is classed as ADME, organism-based. As to conditions: in vivo.
For series [23], the system named is Canis familiaris. Briefly: Antidiabetic activity in Beagle dog assessed as reduction in blood glucose AUC administered orally via gavage as single dose 90 mins prior to glucagon challenge by glucometer analysis. As to conditions: Canis lupus familiaris. The series is classed as functional, organism-based.
The target of series [24] is T1, Cytochrome P450 3A4. Description: Inhibition of CYP3A4 (unknown origin) using testosterone as substrate. It is filed as ADME.
Series [25] is described as follows: Oral bioavailability in C57 mouse at 20 mg/kg. The series is classed as ADME, organism-based. The conditions noted are these: in vivo.
Series [26] is described as follows: Antagonist activity at GCGR in dog hepatocytes assessed as inhibition of glucagon-induced cAMP by LANCE TR-FRET assay. It is filed as cell-based, Canis lupus familiaris.
The nature of series [27]: Clearance in Sprague-Dawley rat at 2 mg/kg, iv or 10 mg/kg, po. As to conditions: in vivo. The series is classed as ADME, organism-based.
Series [28] is described as follows: Cmax in C57 mouse at 5 mg/kg, iv or 20 mg/kg, po. It is filed as ADME, organism-based. As to conditions: in vivo.
A short description of series [29]: Half life in Sprague-Dawley rat at 2 mg/kg, iv. It is filed as ADME, organism-based. The conditions noted are these: in vivo.
Series [30] is described as follows: Protein binding in human plasma at 1 uM. The series is classed as ADME, cell-free. As to conditions: read-out: PPB.
The nature of series [31]: Half life in dog at 10 mg/kg, po. It is filed as ADME, organism-based, Canis lupus familiaris. The conditions noted are these: in vivo.
The nature of series [32]: Volume of distribution at steady state in dog at 2 mg/kg, iv or 10 mg/kg, po. It is filed as ADME, organism-based, Canis lupus familiaris. As to conditions: in vivo, read-out: Vdss.

T1 sequence (P08684 whole entry): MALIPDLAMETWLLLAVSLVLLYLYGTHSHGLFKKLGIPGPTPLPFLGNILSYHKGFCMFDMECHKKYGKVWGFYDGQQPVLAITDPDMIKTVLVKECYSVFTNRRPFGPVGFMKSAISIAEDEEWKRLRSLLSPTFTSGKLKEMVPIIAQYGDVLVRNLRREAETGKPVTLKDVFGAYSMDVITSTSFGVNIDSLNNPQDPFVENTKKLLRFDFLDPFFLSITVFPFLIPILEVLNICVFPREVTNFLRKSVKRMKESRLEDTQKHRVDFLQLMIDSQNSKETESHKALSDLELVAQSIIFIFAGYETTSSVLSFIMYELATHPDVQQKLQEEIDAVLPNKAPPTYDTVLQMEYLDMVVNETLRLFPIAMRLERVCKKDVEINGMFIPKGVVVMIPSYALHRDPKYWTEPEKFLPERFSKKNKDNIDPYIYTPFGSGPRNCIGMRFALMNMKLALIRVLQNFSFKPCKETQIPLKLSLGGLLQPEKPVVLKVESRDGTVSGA
Glucagon receptor, sequence (P47871 whole entry): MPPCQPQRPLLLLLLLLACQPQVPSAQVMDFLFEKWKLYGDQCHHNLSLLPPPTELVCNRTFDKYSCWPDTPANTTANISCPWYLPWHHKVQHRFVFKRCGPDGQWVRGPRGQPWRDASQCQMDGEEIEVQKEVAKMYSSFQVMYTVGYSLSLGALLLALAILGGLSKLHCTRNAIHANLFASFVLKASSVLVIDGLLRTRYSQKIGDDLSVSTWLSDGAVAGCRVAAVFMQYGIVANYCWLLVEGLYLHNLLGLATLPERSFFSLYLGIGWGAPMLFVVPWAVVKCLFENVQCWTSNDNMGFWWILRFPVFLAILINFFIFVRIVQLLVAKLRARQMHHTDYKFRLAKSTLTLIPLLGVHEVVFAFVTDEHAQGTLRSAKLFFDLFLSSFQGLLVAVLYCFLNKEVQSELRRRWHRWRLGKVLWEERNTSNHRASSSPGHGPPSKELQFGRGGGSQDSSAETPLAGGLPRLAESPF
Cytochrome P450 2C19, sequence (P33261 whole entry): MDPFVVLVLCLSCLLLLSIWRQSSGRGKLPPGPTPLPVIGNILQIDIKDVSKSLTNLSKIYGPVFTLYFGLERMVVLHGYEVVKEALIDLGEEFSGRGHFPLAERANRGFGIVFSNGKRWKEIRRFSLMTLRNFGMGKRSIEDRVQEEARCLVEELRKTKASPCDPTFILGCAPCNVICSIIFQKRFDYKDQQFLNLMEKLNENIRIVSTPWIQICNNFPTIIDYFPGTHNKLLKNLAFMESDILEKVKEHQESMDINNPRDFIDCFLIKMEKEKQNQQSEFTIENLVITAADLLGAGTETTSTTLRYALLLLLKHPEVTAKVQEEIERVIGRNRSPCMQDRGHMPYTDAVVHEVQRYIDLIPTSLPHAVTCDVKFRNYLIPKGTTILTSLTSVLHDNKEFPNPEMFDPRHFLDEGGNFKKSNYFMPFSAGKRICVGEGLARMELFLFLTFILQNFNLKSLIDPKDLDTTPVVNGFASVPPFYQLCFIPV
Cytochrome P450 2C9, sequence (P11712 whole entry): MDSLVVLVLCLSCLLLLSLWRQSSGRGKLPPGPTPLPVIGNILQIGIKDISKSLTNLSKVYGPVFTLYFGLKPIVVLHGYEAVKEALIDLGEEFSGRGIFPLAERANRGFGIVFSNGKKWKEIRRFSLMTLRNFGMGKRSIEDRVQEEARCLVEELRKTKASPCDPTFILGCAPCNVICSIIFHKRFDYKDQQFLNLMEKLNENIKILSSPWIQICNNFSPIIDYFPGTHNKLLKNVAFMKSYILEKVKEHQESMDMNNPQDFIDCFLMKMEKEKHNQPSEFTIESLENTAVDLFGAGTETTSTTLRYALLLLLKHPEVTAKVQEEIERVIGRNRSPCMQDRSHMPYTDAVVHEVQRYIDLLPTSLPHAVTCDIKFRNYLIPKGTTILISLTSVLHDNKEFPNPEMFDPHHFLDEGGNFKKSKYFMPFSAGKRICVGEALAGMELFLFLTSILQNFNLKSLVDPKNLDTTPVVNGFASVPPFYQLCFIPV
Cytochrome P450 2D6, sequence (P10635 whole entry): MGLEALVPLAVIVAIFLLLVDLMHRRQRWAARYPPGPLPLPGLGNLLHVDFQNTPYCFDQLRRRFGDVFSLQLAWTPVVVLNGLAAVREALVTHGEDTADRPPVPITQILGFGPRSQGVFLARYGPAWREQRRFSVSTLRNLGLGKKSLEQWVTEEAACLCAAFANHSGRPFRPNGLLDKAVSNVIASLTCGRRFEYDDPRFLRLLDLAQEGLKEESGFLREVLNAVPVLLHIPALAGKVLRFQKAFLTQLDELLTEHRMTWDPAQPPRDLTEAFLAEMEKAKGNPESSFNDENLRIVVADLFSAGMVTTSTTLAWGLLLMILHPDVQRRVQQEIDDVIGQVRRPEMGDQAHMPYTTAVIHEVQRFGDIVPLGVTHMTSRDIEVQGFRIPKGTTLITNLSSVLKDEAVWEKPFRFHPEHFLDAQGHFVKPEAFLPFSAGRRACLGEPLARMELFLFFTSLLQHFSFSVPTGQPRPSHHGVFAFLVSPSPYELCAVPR

In the case of `COc1c(-c2ccc(C(F)(F)F)cc2C)ccc2c1cnn2[C@@H](CC(C)C)c1ccc(C(=O)NCCC(=O)O)cc1`, the Ratio Ki on Glucagon receptor was 84. Moreover, the remaining at 10 min, 1 µM turned out to be 69% in series [1], 83% in [2], 81% in [3] and 95% in series [4].

One may read the half-life as the time in which the quantity being followed falls by half. Low readings indicate fast loss, high ones slow loss. The pIC50 is the IC50 on a negative log10 scale, so that one unit is a factor of ten. A higher pIC50 goes with a small IC50. As usually defined, the AUC(0-t) is exposure summed from dosing to a finite time, without extrapolation to infinity. High values mean more exposure, low ones less exposure. By Cmax is commonly meant the maximum level reached in the sampled fluid or tissue. What is called pKi is the negative decadic logarithm of the Ki, by convention in mol/L. Turning to `Cc1cc2c(cnn2[C@@H](CC(C)C)c2ccc(C(=O)NCCC(=O)O)cc2)cc1-c1ccc(C(F)(F)F)cc1Cl`, the half-life is 9.1 h in [5]; 16 h in series [11]; 7.8 h in series [14]; 7.1 h in [15]; 3.6 h in series [29]; 18.9 h in [31]. Also, the clearance in series [6] came to 2.47 mL/min/kg; in [16], 0.21 mL/min/kg; in series [27] it was 18.7 mL/min/kg. Also, the pIC50 on Cytochrome P450 3A4 [7], at Cytochrome P450 1A2, against Cytochrome P450 2D6, against Cytochrome P450 2C9, on Cytochrome P450 2C19 and against Cytochrome P450 3A4 [24] was below 5.00 throughout. Further, the inhibition result with Canis familiaris [8] and in the series with Canis familiaris [12] was “Active” each time. For the same molecule, the bioavailability was found to be 57.3% in series [9], 35.4% in [10] and 121% in [25]. In addition, the values for the AUC(0-t) in series [13], in series [17] and in series [18] were 544 µM·h, 5.6 µM·h and 254 µM·h, respectively. Further, the Vd in series [19] was 3.32 L/kg; in series [20] it was 1.45 L/kg; in series [32] it was 0.27 L/kg. Also, the Cmax in series [21] came out at 34.1 µM; in series [22] it was 0.5 µM; in [28] it was 15.6 µM. Moreover, the inhibition result in the series with Canis familiaris [23] is “Dose-dependent effect”. Also, the negative logarithm of the Ki (pKi) in series [26] was 7.70. Also, the remaining at 10 min, 1 µM in [1] came to 65%; in [2], 99%; in series [3], 67%; in series [4], 62%. Moreover, in series [30], the fraction unbound at 1 µM came to 0.0001.

These data come from ChEMBL document CHEMBL4396971, “Discovery of potent and orally bioavailable indazole-based glucagon receptor antagonists for the treatment of type 2 diabetes” (Bioorg Med Chem Lett, 2019).
